Laboratory results from PubChem BioAssay (NCI).
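How tested: cells in 96-well plates exposed to compound for 48 hours at five concentrations. At the GI50, growth is halved. Definition used: TGI = concentration required for complete inhibition of growth.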

Columns and labels:
Test in all cases: NCI tumour cell line growth inhibition, 48 h
[1] = system: M14 melanoma
[2] = system: IGROV1 ovarian
[3] = system: A549 NSCLC
[4] = system: U251 CNS
[5] = system: DU-145 prostate
[6] = system: BT-549 breast
[7] = system: UACC-62 melanoma
[8] = system: LOX IMVI melanoma
[9] = system: HOP-92 NSCLC
[10] = system: K-562 leukemia
[11] = system: NCI-H226 lung
[12] = system: SF-539 CNS
[13] = system: MOLT-4 leukemia
[14] = system: OVCAR-8 ovarian
[15] = system: NCI-H522 lung
[16] = system: NCI-H23 lung
[17] = system: SK-MEL-28 melanoma
[18] = system: 786-0 renal
[19] = system: HL-60(TB) leukemia
[20] = system: TK-10 renal
[21] = system: HOP-62 NSCLC
[22] = system: MDA-MB-231 breast
[23] = system: RXF 393 renal
[24] = system: HCC-2998 colon
[25] = system: COLO 205 colon
[26] = system: UACC-257 melanoma
[27] = system: SR leukemia
[28] = system: SK-MEL-2 melanoma
[29] = system: SK-OV-3 ovarian
[30] = system: OVCAR-3 ovarian
[31] = system: OVCAR-5 ovarian
[32] = system: PC-3 prostate
[33] = system: HCT-116 colon
[34] = system: NCI/ADR-RES ovarian
[35] = system: A498 renal
[36] = system: HCT-15 colon
[37] = system: SK-MEL-5 melanoma
[38] = system: T-47D breast
[39] = system: SNB-75 CNS
[40] = system: MCF7 breast
[41] = system: MDA-MB-468 breast
[42] = system: SNB-19 CNS
[43] = system: SF-295 CNS
[44] = system: SN12C renal
[45] = system: KM12 colon

Nc1nn2c(-c3cc4cc(Br)ccc4oc3=O)ccnc2c1N=Nc1ccc(Br)cc1
GI50 [1]: 3.06 µM | TGI [1]: > 100 µM | GI50 [2]: 2.72 µM | TGI [2]: 8.76 µM | GI50 [3]: 2.42 µM | TGI [3]: 6.86 µM | GI50 [4]: 2.14 µM | TGI [4]: 5.25 µM | GI50 [5]: 3.24 µM | TGI [5]: > 100 µM | GI50 [6]: 2.94 µM | TGI [6]: 8.72 µM | GI50 [7]: 3.24 µM | TGI [7]: > 100 µM | GI50 [8]: 2.09 µM | TGI [8]: 4.46 µM | GI50 [9]: 2 µM | TGI [9]: 4.61 µM | GI50 [10]: 3.28 µM | TGI [10]: > 100 µM | GI50 [11]: 1.96 µM | TGI [11]: 4.58 µM | GI50 [12]: 1.73 µM | TGI [12]: 3.13 µM | GI50 [13]: > 100 µM | TGI [13]: > 100 µM | GI50 [14]: 2.81 µM | TGI [14]: 9.79 µM | GI50 [15]: 2.2 µM | TGI [15]: 6.55 µM | GI50 [16]: 2.06 µM | TGI [16]: 4.4 µM | GI50 [17]: 2.18 µM | TGI [17]: 4.93 µM | GI50 [18]: 1.76 µM | TGI [18]: 3.35 µM | GI50 [19]: > 100 µM | TGI [19]: > 100 µM | GI50 [20]: 2.34 µM | TGI [20]: 5.08 µM | GI50 [21]: 1.99 µM | TGI [21]: 4.16 µM | GI50 [22]: 1.73 µM | TGI [22]: 3.4 µM | GI50 [23]: 2.25 µM | TGI [23]: 5.37 µM | GI50 [24]: 3.74 µM | TGI [24]: > 100 µM | GI50 [25]: 3.34 µM | TGI [25]: > 100 µM | GI50 [26]: 3.06 µM | TGI [26]: > 100 µM | GI50 [27]: 5.12 µM | TGI [27]: > 100 µM | GI50 [28]: 3.68 µM | TGI [28]: 17.1 µM | GI50 [29]: 2.62 µM | TGI [29]: 6.61 µM | GI50 [30]: 2.33 µM | TGI [30]: 6.37 µM | GI50 [31]: 2.11 µM | TGI [31]: 5.21 µM | GI50 [32]: 1.99 µM | TGI [32]: 5.09 µM | GI50 [33]: 1.75 µM | TGI [33]: 3.44 µM | GI50 [34]: 2.22 µM | TGI [34]: 5.01 µM | GI50 [35]: 1.81 µM | TGI [35]: 3.92 µM | GI50 [36]: 2.58 µM | TGI [36]: 8.23 µM | GI50 [37]: 3.25 µM | TGI [37]: > 100 µM | GI50 [38]: 2.29 µM | TGI [38]: 6.8 µM | GI50 [39]: 1.81 µM | TGI [39]: 4.62 µM | GI50 [40]: 2.89 µM | TGI [40]: 10.1 µM | GI50 [41]: 2.04 µM | TGI [41]: 5.47 µM | GI50 [42]: 2.84 µM | TGI [42]: 10.9 µM | GI50 [43]: 1.86 µM | TGI [43]: 4.01 µM | GI50 [44]: 1.94 µM | TGI [44]: 3.87 µM | GI50 [45]: 3.76 µM | TGI [45]: > 100 µM
